Reference: patent US20050085447A1, “Pyrido[3,4-d]pyrimidine derivatives as matrix metalloproteinase-13 inhibitors” (Warner-Lambert Company LLC, priority 2003, published 2005)

Columns and labels:
MMP-3 catalytic domain = target: T1, MMP-3 catalytic domain (Homo sapiens, UniProt P08254); assay: Thiopeptolide substrate hydrolysis inhibition assay, MMP-3 catalytic domain; type: biochemical; settings: MES buffer pH 6.0, read-out: MMP-3CD IC50
T1 construct: MMP-1 full-length, MMP-3 catalytic domain, MMP-7 full-length
T1 sequence (P08254 100-272 limits assumed): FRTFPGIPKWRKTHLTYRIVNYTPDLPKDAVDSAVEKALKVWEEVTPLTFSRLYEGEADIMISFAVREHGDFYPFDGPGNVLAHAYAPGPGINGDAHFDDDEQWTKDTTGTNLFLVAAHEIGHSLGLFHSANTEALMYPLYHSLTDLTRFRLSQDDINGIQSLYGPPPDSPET
Text: (§1) The assay methods of Biological Examples 1-4 measure the amount by which a test compound reduces the hydrolysis of a thiopeptolide substrate catalyzed by a matrix metalloproteinase enzyme or catalytic domain thereof. It has been shown previously by Ye Qi-Zhuang, Hupe D., and Johnson L. (Current Medicinal Chemistry, 1996;3:407-418) that inhibitor activity against a catalytic domain of an MMP is predictive of the inhibitor activity against the respective full-length MMP enzyme. The methods described below for the inhibition of MMP-13 may also be adapted and used to determine the ability of the compounds of Formula I to inhibit other matrix metalloproteases such as MMP-1, MMP-2, MMP-3, MMP-7, MMP-8, MMP-9, MMP-12, MMP-14, MMP-17, and the like.
(§2) Thiopeptolide substrates show virtually no decomposition or hydrolysis at or below neutral pH in the absence of a matrix metalloproteinase enzyme. A typical thiopeptolide substrate commonly utilized for assays is Ac-Pro-Leu-Gly-thioester-Leu-Leu-Gly-OEt. A 100 μL assay mixture will contain 50 mM of N-2-hydroxyethylpiperazine-N′-2-ethanesulfonic acid buffer (“HEPES,” pH 7.0), 10 mM CaCl2, 100 μM thiopeptolide substrate, and 1 mM 5,5′-dithio-bis-(2-nitro-benzoic acid) (DTNB). […] The change in absorbance at 405 nm is monitored on a Thermo Max microplate reader (molecular Devices, Menlo Park, Calif.) at room temperature (22° C.). The calculation of the amount of hydrolysis of the thiopeptolide substrate is based on E412=13600 M^−1 cm^−1 for the DTNB-derived product 3-carboxy-4-nitrothiophenoxide. Assays are carried out with and without matrix metalloproteinase inhibitor compounds, and the amount of hydrolysis is compared for a determination of inhibitory activity of the test compounds.
(§3) Test compounds were evaluated at various concentrations in order to determine their respective IC50 values, the micromolar concentration of compound required to cause a 50% inhibition of catalytic activity of the respective enzyme.
It should be appreciated that the assay buffer used with MMP-3CD was 50 mM N-morpholinoethane sulfonate (“MES”) at pH 6.0 rather than the HEPES buffer at pH 7.0 described above.
(§4) Some representative compounds of Formula I have been evaluated for their ability to inhibit MMP-13, MMP-1FL, MMP-3CD, MMP-7FL, MMP-8FL, MMP-9FL, MMP-12CD, MMP-14CD, and/or MMP-17CD, wherein FL means full-length enzyme and CD means a catalytic domain of the full-length enzyme. Test compounds can be evaluated at various concentrations in order to determine their respective IC50 values, the micromolar concentration of compound required to cause a 50% inhibition of the hydrolytic activity of the respective enzyme.
(§5) Certain compounds of Formula I have also been assayed with MMP-1 full-length, MMP-3 catalytic domain, MMP-7 full-length, MMP-8 full-length, MMP-9 full-length, MMP-12 catalytic domain, MMP-14 catalytic domain, and MMP-17 catalytic domain. […] In Biological Table 2, the compound example numbers for the Compound Examples are indicated in the column labelled “Ex. No.”

MMP-13 catalytic domain = MMP-13 catalytic domain (Homo sapiens, UniProt P45452); assay: Thiopeptolide substrate hydrolysis inhibition assay, MMP-13 catalytic domain; type: biochemical
Text: The methods described below for the inhibition of MMP-13 may also be adapted and used to determine the ability of the compounds of Formula I to inhibit other matrix metalloproteases such as MMP-1, MMP-2, MMP-3, MMP-7, MMP-8, MMP-9, MMP-12, MMP-14, MMP-17, and the like.
Thiopeptolide substrates show virtually no decomposition or hydrolysis at or below neutral pH in the absence of a matrix metalloproteinase enzyme. A typical thiopeptolide substrate commonly utilized for assays is Ac-Pro-Leu-Gly-thioester-Leu-Leu-Gly-OEt. A 100 μL assay mixture will contain 50 mM of N-2-hydroxyethylpiperazine-N′-2-ethanesulfonic acid buffer (“HEPES,” pH 7.0), 10 mM CaCl2, 100 μM thiopeptolide substrate, and 1 mM 5,5′-dithio-bis-(2-nitro-benzoic acid) (DTNB). […] Assays are carried out with and without matrix metalloproteinase inhibitor compounds, and the amount of hydrolysis is compared for a determination of inhibitory activity of the test compounds.

MMP-12 catalytic domain = target: T2, MMP-12 catalytic domain (Homo sapiens, UniProt P39900); assay: Thiopeptolide substrate hydrolysis inhibition assay, MMP-12 catalytic domain; type: biochemical; settings: read-out: MMP-12CD IC50
T2 construct: MMP-9 full-length, MMP-12 catalytic domain, MMP-14 catalytic domain
T2 sequence (P39900 106-263 limits assumed): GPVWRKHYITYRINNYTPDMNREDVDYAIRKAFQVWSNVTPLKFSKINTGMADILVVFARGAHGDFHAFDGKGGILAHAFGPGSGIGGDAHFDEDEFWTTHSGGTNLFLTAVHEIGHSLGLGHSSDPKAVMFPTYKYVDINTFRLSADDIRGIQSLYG
Text: as §1, §2, §3, §4, §5

MMP-14 catalytic domain = target: T3, MMP-14 catalytic domain (Homo sapiens, UniProt P50281); assay: Thiopeptolide substrate hydrolysis inhibition assay, MMP-14 catalytic domain; type: biochemical; settings: read-out: MMP-14CD IC50
T3 construct: MMP-14 catalytic domain, and MMP-17 catalytic domain
Text: as §1, §2, §3, §4, §5

MMP-17 catalytic domain = target: T4, MMP-17 catalytic domain (Homo sapiens, UniProt Q9ULZ9); assay: Thiopeptolide substrate hydrolysis inhibition assay, MMP-17 catalytic domain; type: biochemical; settings: read-out: MMP-17 CD IC50
T4 construct: MMP-14 catalytic domain, and MMP-17 catalytic domain
T4 sequence (Q9ULZ9 126-295 limits assumed): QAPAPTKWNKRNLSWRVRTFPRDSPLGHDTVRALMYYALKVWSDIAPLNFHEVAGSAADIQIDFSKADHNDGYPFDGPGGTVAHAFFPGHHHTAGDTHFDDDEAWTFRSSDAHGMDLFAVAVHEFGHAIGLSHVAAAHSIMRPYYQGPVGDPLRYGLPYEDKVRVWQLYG
Text: as §1, §2, §3, §4, §5

[1] = Pharmacokinetics in Sprague-Dawley rats (single IV or oral dose); type: in vivo, rat; settings: rat, blood, Sprague-Dawley rats, single 5 mg/kg intravenous dose
Text: For comparison purposes, a reference compound was separately characterized according to its pharmacokinetics properties except AUC in a similar manner. The reference compound (“Reference Compound 1”) was the compound of Example 188 of PCT International Patent Application Publication number WO 02/064572 A1, which is also described in PCT International Patent Application Publication number WO 02/064080 A2 in Table IVb on page 76, 5th species from the top. […] Reference Compound 1 is named 4-[6-(4-methoxy-benzylcarbamoyl)- 1 -methyl-2,4-dioxo- 1,4-dihydro-2H-pyrido[3,4-d]pyrimidin-3-ylmethyl]-benzoic acid, and has the structure drawn below: [drawing 98]

SMILES: O=C(O)c1ccc(Cn2cnc3cnc(C(=O)NCc4ccc(F)cc4)cc3c2=O)cc1 [Compound Example 8, 4-[6-(4-fluoro-benzylcarbamoyl)-4-oxo-4H-pyrido[3,4-d]pyrimidin-3-ylmethyl]-benzoic acid]
- IC50 (MMP-3 catalytic domain): 33 µM
- IC50 (MMP-13 catalytic domain): 0.0043 µM
- IC50 (MMP-12 catalytic domain): > 30 µM
- IC50 (MMP-14 catalytic domain): > 100 µM
- IC50 (MMP-17 catalytic domain): > 100 µM

SMILES: COc1ccc(CNC(=O)c2cc3c(=O)n(Cc4ccc(C(=O)O)cc4)c(=O)n(C)c3cn2)cc1 [Reference Compound 1, 4-[6-(4-methoxy-benzylcarbamoyl)-1-methyl-2,4-dioxo-1,4-dihydro-2H-pyrido[3,4-d]pyrimidin-3-ylmethyl]-benzoic acid, reference compound]
- clearance ([1]; read-out: IV CL): 48.9 mL/min/kg
- half-life ([1]; read-out: IV T1/2 (converted)): 36 min

SMILES: CSc1ccc(CNC(=O)c2cc3c(=O)n(Cc4ccc(C(=O)O)cc4)cnc3cn2)cc1 [Compound Example 7, 4-[6-(4-methylsulfanyl-benzylcarbamoyl)-4-oxo-4H-pyrido[3,4-d]pyrimidin-3-ylmethyl]-benzoic acid]
- IC50 (MMP-3 catalytic domain): > 10 µM
- IC50 (MMP-13 catalytic domain): 0.011 µM
- IC50 (MMP-12 catalytic domain): 14 µM
- IC50 (MMP-14 catalytic domain): > 30 µM
- IC50 (MMP-17 catalytic domain): > 100 µM
